SMILES strings stand for the structures. pEC50, pIC50: −log10 of the molar value. “And” between values parts separate entries of the source, which are not always exact repeats. Equal values may be shown once. The source made the active and inactive calls.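 Rule for the calls: active = compounds giving half or more protection of infected cells from virus-caused growth loss, again on retest; inactive = the rest.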

This experiment deals with CEM cells HIV-1 protection, formazan growth assay. As to the kind of experiment: NCI AIDS Antiviral Assay. The conditions noted are these: for pIC50: measured here: growth of uninfected CEM cells. The method in brief: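 Category rules: moderately active means at least 50% protection on retest, and confirmed active means 100% protection reproducibly. The underlying data came from a formazan growth assay in HIV-1-infected CEM cells.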

Consider `CC1CC(=O)Nc2nc3ccccc3n21` (centres undefined), for which the pEC50 was below 3.70 and the pIC50 was below 3.70.

Take `Cn1c2c(cc(-c3ccccc3)c1=O)COc1ccccc1-2`: the pEC50 is below 4.05 and the pIC50 is 4.33.

With `Cn1c(=O)c2c(nc3n(Cc4ccccc4)c(=O)c(NCCBr)cn23)n(C)c1=O`, the pEC50 was below 3.90 and the pIC50 was 4.31.

For `CCOc1cc2c(cc1O)C=C[C@@H]1[C@@H]2CC[C@]2(C)[C@@H](O)CC[C@@H]12`, the pEC50 is below 5.70 and the pIC50 is 6.23.

Take `C/C=N\n1c(C)n[nH]c1=O`: the pEC50 is below 3.70 and the pIC50 is below 3.70.

Regarding `O=C(C#CP(=O)(O)c1ccccc1)c1ccccc1`, the pEC50 is below 3.70 and the pIC50 was below 3.70.

For `CC1=NCCC[N-]CC[N-]CCCN=C1C.[Ni+2].[O-][Cl+3]([O-])([O-])O`, the pEC50 is below 3.70 and the pIC50 was below 3.70.

As to `NC(=O)N/N=C(\Cc1nc2ccc(Cl)cc2[nH]c1=O)C(=O)Nc1ccc(Cl)cc1Cl`, the pEC50 is below 4.11 and the pIC50 was below 4.11.

As to `C[N+](C)([O-])CCNc1c2ccccc2nc2cccc([N+](=O)[O-])c12`, the pEC50 was below 4.70 and the pIC50 is 6.45.

In the case of `C/C(=N\Nc1ccc([N+](=O)[O-])cc1)C(=O)N(C)Nc1ccccc1`, the result was inactive.

As to `CCN(CC)CCCNC(=O)c1ccccc1Nc1c(Cl)cccc1Cl`, the pEC50 was below 3.70 and the pIC50 was 5.17.

In the case of `Cc1cc(S(=O)(=O)Nc2nc3ccccc3n2-c2ccccc2)c(S)cc1Cl`, the pEC50 was below 3.70 and the pIC50 was 3.79.

In the case of `c1ccc(C2=NOC3(c4ccccc4)SC4CCCCC4CN23)cc1` (centres undefined), the pEC50 was below 4.97 and the pIC50 was below 4.97.

In the case of `c1ccc(CSc2ccc3nncc(SCc4ccccc4)c3c2)cc1`, the pEC50 is below 4.24 and the pIC50 is below 4.24.

Turning to `CCc1cccc(C)c1N1C(=O)C(=O)C(c2nc3ccccc3o2)C(=O)C1=O`, the pEC50 was below 3.48 and the pIC50 is 4.18.

Take `Fc1c(F)c(F)c2c(c1F)CSc1nc3ccccc3n1-2`: the pEC50 was below 3.70 and the pIC50 was below 3.70.

As to `CCCCCCCCCCCCCC(=O)OCC1OC(n2cc(C)c(=O)[nH]c2=O)CC1O` (centres undefined), the pEC50 was below 3.70 and the pIC50 was 4.93.

`CN(C)P1(=O)OCC2CCC[C@@H]2O1` (some centres undefined): the outcome was inactive.

For `CCOC(=O)NC(Nc1ccc(F)cc1)(C(=O)OCC)C(F)(F)F` (centres undefined), the outcome was inactive.

As for `O=[N+]([O-])c1ccc(/C=[N+](\[O-])CCO)o1`, the pEC50 was below 3.70 and the pIC50 is 4.51.

On to `O=C(Nc1ccccc1C(=O)NCCCO)/C(=C/c1ccccc1O)NC(=O)c1ccccc1`, for which the pEC50 is below 3.70 and the negative-log IC50 (pIC50) is below 3.70.

On to `Cc1cc(C=O)c(C)c2c1[nH]c1ccccc12`, for which the pEC50 is below 3.70 and the pIC50 is 5.12.

As for `O=C(O)c1ccccc1CC1Cc2ccc3c(c2C1=O)CCC3` (centres undefined), the pEC50 is below 3.70 and the pIC50 is 3.95.

On to `Cc1ccc(S(=O)(=O)OC2CCN(C)CC2)cc1`, for which the pEC50 is below 3.70 and the pIC50 is below 3.70.

As to `Brc1cccc[n+]1Cc1ccccc1C[n+]1ccccc1Br`, the pEC50 was below 3.70 and the pIC50 was below 3.70.

In the case of `Cc1cc2cccc(Cl)c2nc1C(=O)c1ccccc1`, the pEC50 was below 5.18 and the pIC50 is below 5.18.

In the case of `NNC(=O)CCC(NS(=O)(=O)c1ccc(Cl)cc1)C(=O)NN` (centres undefined), the pEC50 was below 3.70 and the pIC50 was 3.84.

Regarding `COC(=O)c1cc(C(c2cc(C(=O)OC)c(OC)c(Br)c2C)C(Cl)(Cl)Cl)c(C)c(Br)c1OC`, the pEC50 was below 3.70 and the pIC50 is 4.59.

In the case of `CC(=O)Nc1ccc(S(=O)(=O)Nc2ccc(S(=O)(=O)c3ccc(-n4sc5ccccc5c4=O)cc3)cc2)cc1`, the pEC50 is 4.78 and the pIC50 was 3.99.

`CCn1c(=O)[nH]c(=O)c2conc21`: the pEC50 was below 2.86 and the pIC50 was 3.18.

Consider `O=C(NCCCCCCNC(=O)NC1OCC(O)C(O)C1O)NC1OCC(O)C(O)C1O` (centres undefined), for which the outcome was inactive.

As for `O=C1NC(=O)c2ccccc2/C1=C/c1ccc2c(c1)OCO2`, the pEC50 is below 3.70 and the pIC50 is 5.68.

Consider `COC(=O)c1cc(C(=O)OC)c2c3[nH]cnc3ncn2c1=O`, for which the pEC50 is below 3.70 and the pIC50 is below 3.70.

On to `Cc1nc2c(c(=O)[nH]1)OCN(C)C2`, for which the pEC50 was below 3.70 and the pIC50 is 3.83.

As to `Nc1ncnc(N)c1N=O`, the pEC50 is below 3.70; the pIC50 was 5.23 and 5.79.

`CS/C(=N\c1nccs1)NC(=O)c1cccc(Cl)c1`: the pEC50 is below 4.23 and the pIC50 was below 4.23.

Turning to `COC(Cc1ccccc1)NC(=O)[C@@]12CCCC[C@@H]1C=Cc1ccccc12` (some centres undefined), the pEC50 was below 4.26 and the pIC50 is 4.64.

Consider `CC1(c2ccccc2)OC(=O)c2ccccc21` (centres undefined), for which the pEC50 is below 3.70 and the pIC50 is below 4.00.

As to `O=Cc1cn(C(=O)c2ccccc2)c2ccccc12`, the result was inactive.

In the case of `Cc1ccc(/S(Cc2ccccc2)=N\S(=O)(=O)c2ccc(C)cc2)cc1` (centres undefined), the pEC50 was below 4.17 and the pIC50 was below 4.17.

For the compound `CCOC(=O)/C(=C\c1cc(OC)ccc1OC)P(=O)(OCC)OCC`, the pEC50 was below 3.17 and the pIC50 was 5.01.

`Cc1cc(S(=O)(=O)n2ccnc2Oc2cccc(Cl)c2)c(SSc2cc(Cl)c(C)cc2S(=O)(=O)n2ccnc2Oc2cccc(Cl)c2)cc1Cl`: the pEC50 is 5.09 and the pIC50 is 4.86.

Consider `COc1cc2cc[n+](C)c(Cc3ccc(Oc4cc(Cc5c6cc(OC)c(OC)cc6cc[n+]5C)ccc4OC)cc3)c2cc1OC`, for which the result was inactive.

`Cn1c(=O)c2c(ncn2CCCCn2ccnc2[N+](=O)[O-])n(C)c1=O`: the pEC50 is below 3.70 and the pIC50 is below 3.70.

As to `COc1ccc(-c2c(C(=O)Nc3ccccc3)c(-c3ccccc3)n(C3OC(CO)C(O)C(O)C3O)c(=S)c2C#N)cc1` (centres undefined), the pEC50 is below 3.70 and the pIC50 was 3.97.

For the compound `c1c2c(cc(-n3nnc4c3CCCCCC4)c1-n1nnc3c1CCCCCC3)CCCCCC2`, the pEC50 is below 4.66 and the negative logarithm of the IC50 (pIC50) was below 4.66.

Regarding `CC1(C)C2CCC3(C2)CS(=O)(=O)N2OC231` (centres undefined), the pEC50 was below 3.66 and the pIC50 is 3.92.

In turn, `NC(=O)CNC(=O)c1ccc([As](=O)(O)O)cc1` had a pEC50 below 3.70 and a negative-log IC50 (pIC50) below 3.70.

With `C(=C(c1ccccc1)c1ccccc1)=C(c1ccccc1)c1ccccc1`, the pEC50 is below 4.54 and the pIC50 is below 4.54.

Turning to `CC(=O)Nc1ccc(C(=O)N[C@@H]2C(=O)N3[C@@H]2SC(C)(C)[C@@H]3C(=O)O)cn1`, the pEC50 was 4.25 and the pIC50 was 4.12.

As to `O=S(=O)(O)c1cc[c]([Sb](=[O])([OH])[OH])cc1`, the pEC50 was 6.18 and the pIC50 is 3.40.

As for `CC1=NNC(=O)C12CC2`, the outcome was inactive.

As to `CC1(C)c2ccccc2C(=O)C1(Br)Cc1ccccc1` (centres undefined), the pEC50 was below 3.70 and the pIC50 was 5.02.

As for `O=C1COC(c2ccccc2O)=NN1CCCl`, the pEC50 was below 3.85 and the pIC50 is below 3.85.

On to `NCCCCC(=O)c1cccnc1`, for which the pEC50 is below 3.00 and the negative-log IC50 (pIC50) is 3.30.

`COC(=O)C(Cc1c(C2Nc3ccccc3C2CC(NC(=O)CNC(C)=O)C(=O)OC)[nH]c2ccccc12)NC(=O)CNC(C)=O` (centres undefined): the pEC50 is below 3.70 and the pIC50 was below 3.70.

Take `COC(=O)CCC(C)C1CCC2C3CCC4CC5CCC4C3(CO5)C(=O)C(Br)C12C` (centres undefined): the pEC50 is below 4.97 and the negative logarithm of the IC50 (pIC50) was below 4.97.

Regarding `N#CC(N)c1ccc(OCCCCCCCCCCOc2ccc(C(N)C#N)cc2)cc1` (centres undefined), the pEC50 is below 3.70 and the pIC50 is 3.94.

As to `c1ccc(-c2onc3c2CCCC3)cc1`, the result was inactive.

Turning to `CC[C@@H](C)C(=O)O[C@H]1[C@H](O)[C@H]2[C@@H](CN3C[C@@H](C)CC[C@H]3[C@@]2(C)O)[C@@H]2CC34O[C@]5(O)[C@@H](OC(=O)[C@@](C)(O)CC)CC[C@@]3(C)[C@@H]5[C@@H](OC(C)=O)[C@@H](OC(C)=O)[C@H]4[C@@]21O`, the pEC50 is below 3.70 and the pIC50 was below 3.70.

As to `CC(C)(C)n1c(=O)[nH]n(C2NN=Cc3cccc4cccc2c34)c1=O` (centres undefined), the pEC50 was below 3.70 and the pIC50 is 4.62.

On to `CS(=O)(=O)Nc1nc2ccccc2c(=O)o1`, for which the pEC50 was below 3.70 and the pIC50 was below 3.70.

For the compound `COC(=O)C1(C(C)C)CCc2c(OC)ccc(OC)c2C1=O` (centres undefined), the outcome was inactive.

For the compound `O=C(Nc1ccc(N=Nc2ccccc2)cc1)Sc1ccccc1C(=O)O`, the result was inactive.

With `COc1ccc(/C=N/Nc2nc(-c3cc4oc(=O)n(C)c4cc3Cl)cs2)cc1OC`, the pEC50 is below 4.93 and the pIC50 was below 4.93.

Turning to `CSC1NNC2(C(=O)N1)c1ccccc1-c1ccccc12` (centres undefined), the pEC50 was below 3.70 and the pIC50 is 4.57.

As to `CCOC(=O)C12CN(C34CC5CC(CC(C5)C3)C4)CC(C(=O)OCC)(C1=O)C(c1ccccc1)OC2c1ccccc1` (centres undefined), the pEC50 was below 4.51 and the pIC50 is 4.87.

On to `Cc1cn(C2CC(OP(=O)(O)OCC3CCC(n4ccc(N)nc4=O)O3)C(CO)O2)c(=O)[nH]c1=O` (centres undefined), for which the pEC50 was 6.69 and the negative-log IC50 (pIC50) was 4.45.

For `O=C1c2cccc(NCCCNCCO)c2C(=O)c2cccc(NCCCNCCO)c21`, the result was inactive.

`COc1ccc(/C=C(\C#N)C(=O)c2ccccc2)cc1`: the pEC50 is below 4.01 and the pIC50 was 4.25.

`COC(=O)C(C(=O)Cc1ccccc1[N+](=O)[O-])C(=O)OC`: the pEC50 is below 3.60 and the pIC50 was 3.99.

With `Cc1cc(C)c(S(=O)(=O)Sc2nnnn2-c2ccccc2)c(C)c1`, the pEC50 is below 4.70 and the pIC50 was below 4.70.

`O=C(c1ccccc1)C(C(=O)c1ccccc1)C1(O)C(=O)c2ccccc2C1=O`: the outcome was inactive.

The values above are taken from PubChem BioAssay AID179 (DTP/NCI, 2004).
